Among the data in patent publication US20150045291A1, “LIPOPEPTIDE CONJUGATES COMPRISING SPHINGOLIPID AND HIV GP41 DERIVED PEPTIDES” (priority 2012, published 2015) are IC50 and IC90 values, retold here.

Like-named read-outs stand apart in the source and are kept apart here. Starred links: 1 amine or outer side, 2 acyl side, 3 side chain; linkers in the order of their positions; H or OH if unused. Residues, ends and D or L forms follow the SMILES beside them. Groups on a side chain read outwards from the residue. *: point of attachment. Sphinganine = CCCCCCCCCCCCCCC[C@@H](O)[C@H](CO)N*; CO = O=C([*:1])[*:2]

The assay relates to fully infectious HIV-1 HXB2.
The mark [1] stands for this setting: fully infectious HIV-1 system (Table 2).

Compound `CC[C@H](C)[C@H](NC(=O)CNC(=O)[C@H](Cc1c[nH]c2ccccc12)NC(=O)[C@@H](NC(=O)[C@@H](NC(=O)[C@H](CC(C)C)NC(=O)[C@H](CCC(N)=O)NC(=O)[C@H](CC(C)C)NC(=O)[C@@H](N)CC(C)C)[C@@H](C)O)C(C)C)C(=O)N[C@@H](CCCCN)C(=O)N[C@@H](CCC(N)=O)C(=O)N[C@@H](CC(C)C)C(=O)N[C@@H](CCC(N)=O)C(=O)N[C@@H](C)C(=O)N[C@@H](CCCNC(=N)N)C(=O)N[C@H](C(=O)N[C@@H](CC(C)C)C(=O)N[C@@H](CCCCN)C(N)=O)[C@@H](C)CC` [N17K, LLQLTVWGIKQLQARILK] (H-LLQLTVWGIKQLQARILK-NH2; C-terminus assumed) gave an IC50 under setting [1] above 4000 nM.

The compound `CC[C@H](C)[C@H](NC(=O)[C@H](CCC(N)=O)NC(=O)[C@H](CC(C)C)NC(=O)[C@H](Cc1c[nH]c2ccccc12)NC(=O)[C@H](CC(C)C)NC(=O)[C@@H](NC(=O)[C@H](CCC(N)=O)NC(=O)[C@H](CC(C)C)NC(=O)[C@H](CCCNC(=N)N)NC(=O)[C@H](C)NC(=O)[C@@H](NC(=O)[C@H](CCCCN)NC(=O)[C@@H](N)CCC(N)=O)[C@@H](C)CC)[C@@H](C)O)C(=O)NCC(=O)N[C@H](C(=O)N[C@@H](CC(C)C)C(=O)N[C@@H](CC(C)C)C(N)=O)C(C)C` [N17 scrambled, QKIARLQTLWLQIGVLL] (H-QKIARLQTLWLQIGVLL-NH2; C-terminus assumed) returned an IC50 under setting [1] above 4000 nM.

With `CCCCCCCCCCCCCCC[C@@H](O)[C@H](CO)NC(=O)NCCCC[C@H](NC(=O)[C@H](CC(N)=O)NC(=O)[C@H](CCCCN)NC(=O)[C@H](CCC(=O)O)NC(=O)[C@H](CCC(N)=O)NC(=O)[C@H](CCC(N)=O)NC(=O)[C@H](CC(N)=O)NC(=O)[C@H](CCC(N)=O)NC(=O)[C@H](CO)NC(=O)[C@H](CCC(=O)O)NC(=O)[C@H](CCC(=O)O)NC(=O)[C@@H](NC(=O)[C@H](CC(C)C)NC(=O)[C@H](CO)NC(=O)[C@H](Cc1c[nH]cn1)NC(=O)[C@@H](NC(=O)[C@H](CC(C)C)NC(=O)[C@H](CO)NC(=O)[C@@H](NC(=O)[C@@H](N)Cc1ccc(O)cc1)[C@@H](C)O)[C@@H](C)CC)[C@@H](C)CC)C(N)=O` [DP19K-sphing] (H-YTSLIHSLIEESQNQQEKNK([CO-Sphinganine])-NH2), for the setting “read-out: IC50 (inhibitory concentration at 50% infectivity), TZM-bl cells, fully contagious HXB2 HIV-1”, the IC50 was 350 nM.

On to `CC[C@H](C)[C@H](NC(=O)[C@H](CCCNC(=N)N)NC(=O)[C@H](C)NC(=O)[C@H](CC(C)C)NC(=O)[C@H](CC(C)C)NC(=O)[C@H](CCC(N)=O)NC(=O)[C@H](CCCCN)NC(=O)[C@@H](NC(=O)[C@H](CCCCN)NC(=O)[C@H](Cc1c[nH]c2ccccc12)NC(=O)[C@H](CCC(N)=O)NC(=O)[C@@H](NC(=O)[C@H](CC(C)C)NC(=O)[C@H](CCC(N)=O)NC(=O)[C@H](CC(C)C)NC(=O)[C@@H](N)CCC(=O)O)[C@@H](C)O)[C@@H](C)CC)C(=O)N[C@@H](CC(C)C)C(=O)N[C@@H](CCCCN)C(N)=O` [N17mut (e, g) K, ELQLTQWKIKQLLARILK] (H-ELQLTQWKIKQLLARILK-NH2; C-terminus assumed), for which the IC50 under setting [1] is above 4000 nM.

As to `CCCCCCCCCCCCCCC[C@@H](O)[C@H](CO)NC(=O)N[C@@H](CC(C)C)C(=O)N[C@@H](CCC(N)=O)C(=O)N[C@@H](C)C(=O)N[C@@H](CCCNC(=N)N)C(=O)N[C@H](C(=O)N[C@@H](CC(C)C)C(=O)N[C@@H](C)C(=O)N[C@H](C(=O)N[C@@H](CCC(=O)O)C(=O)N[C@@H](CCCNC(=N)N)C(=O)N[C@@H](Cc1ccc(O)cc1)C(=O)N[C@@H](CC(C)C)C(=O)N[C@@H](CCCCN)C(=O)N[C@@H](CC(=O)O)C(=O)N[C@@H](CCC(N)=O)C(=O)N[C@@H](CCC(N)=O)C(=O)N[C@@H](CC(C)C)C(N)=O)C(C)C)[C@@H](C)CC` [Sphing-ShN17, Sphinganine-LQARILAVERYLKDQQL] ({Sphinganine-CO}-LQARILAVERYLKDQQL-NH2), under setting [1], the IC50 turned out to be 886 ± 102 nM.

A word on the IC90: it is the concentration needed for an effect of 90%. On to `CCCCCCCCCCCCCCC[C@@H](O)[C@H](CO)NC(=O)NCCCC[C@H](NC(=O)[C@@H](NC(=O)[C@H](Cc1ccc(O)cc1)NC(=O)[C@H](CC(N)=O)NC(=O)[C@H](CC(N)=O)NC(=O)[C@@H](NC(=O)[C@H](CCC(=O)O)NC(=O)[C@H](CCCNC(=N)N)NC(=O)[C@H](CC(=O)O)NC(=O)[C@H](Cc1c[nH]c2ccccc12)NC(=O)[C@H](CCC(=O)O)NC(=O)[C@H](CCSC)NC(=O)[C@H](Cc1c[nH]c2ccccc12)NC(=O)[C@@H](NC(=O)[C@@H](N)[C@@H](C)O)[C@@H](C)O)[C@@H](C)CC)[C@@H](C)O)C(N)=O` [PBDK-Sphing, TTWMEWDREINNYTK-Sphinganine] (H-TTWMEWDREINNYTK([CO-Sphinganine])-NH2; N-terminus assumed), for which, for the setting “read-out: IC50 (nM), […], fully infectious HIV-1 system (Table 3)”, the IC50 is 467 ± 140 nM. The IC90 (read-out: IC90 (nM), […], fully infectious HIV-1 system (Table 3)) was found to be 1090 ± 100 nM.

Take `CCCCCCCCCCCCCCC[C@@H](O)[C@H](CO)NC(=O)NCCCC[C@H](NC(=O)[C@H](CC(C)C)NC(=O)[C@@H](NC(=O)[C@H](CCCNC(=N)N)NC(=O)[C@H](C)NC(=O)[C@H](CC(C)C)NC(=O)[C@H](CC(C)C)NC(=O)[C@H](CCC(N)=O)NC(=O)[C@H](CCCCN)NC(=O)[C@@H](NC(=O)[C@H](CCCCN)NC(=O)[C@H](Cc1c[nH]c2ccccc12)NC(=O)[C@H](CCC(N)=O)NC(=O)[C@@H](NC(=O)[C@H](CC(C)C)NC(=O)[C@H](CCC(N)=O)NC(=O)[C@H](CC(C)C)NC(=O)[C@@H](N)CCC(=O)O)[C@@H](C)O)[C@@H](C)CC)[C@@H](C)CC)C(N)=O` [N17mut (e, g) K-sphing, ELQLTQWKIKQLLARILK-Sphinganine] (H-ELQLTQWKIKQLLARILK([CO-Sphinganine])-NH2): the IC50 under setting [1] was determined as 120 ± 40 nM.
